Earlier results on 2 substances are cited in publication PMC7465391, “1,4-Disubstituted 1,2,3-Triazoles as Amide Bond Surrogates for the Stabilisation of Linear Peptides with Biological Activity” (Molecules, 2020).

Where two headings read alike, the source gives them in different places.

One data set deals with cathepsin L. The source says:
(§1) Table 7 Sequences of CatS1–2 and CatK1–2 and their reported biological properties. | column: Ki for CatL, pH 5.5 [nM] ^b || The Lalmanach group explored the stabilisation of peptidic inhibitors for cathepsin K and S [99]. These two proteins are cysteine proteases normally present in lysosomes and share a high homology. When found in the extracellular matrix, these enzymes are often overexpressed and dysregulated, making them innovative targets for new therapies for a range of medical conditions. Cathepsin K is considered as a target involved in osteoporosis whereas cathepsin S has been identified to play a role in autoimmune diseases and neuropathic pain [100, 101]. One strategy to identify inhibitors for prot ... || Another set of investigated peptidomimetics was based on a bradykinin-derived substrate, previously reported to be degraded by cathepsin K [103].

Another data set deals with cathepsin K.
Source text: as §1, with “CatK,” for “CatL,”

The Ki is the equilibrium dissociation constant of an inhibitor or competing ligand from its target. With “Abz-Arg-Pro-Pro-GlyΨ[Tz]Phe-Ser-Pro-Phe-Arg-Tyr(3-NO2)-NH2 [CatK1, triazolo-peptidomimetic of a bradykinin-derived cathepsin K substrate]”, the inhibitory constant (Ki) at cathepsin L (pH 5.5, 37 °C, substrate Z-Phe-Arg-AMC, mean ± SEM of three experiments, read-out: Ki for CatL, pH 5.5) is 22 µM; on cathepsin K (reversible inhibition, read-out: Ki cathepsin K), 0.8 µM.

With “Ac-Gly-Arg-Trp-His-Pro-Met-GlyΨ[Tz]Ala-Pro-Trp-Glu-D-Ala-D-Arg-NH2 [CatS1]”, the Ki was 30 µM on cathepsin L (reversible inhibition, read-out: Ki cathepsin L) and 10 µM on cathepsin K (pH 5.5, 37 °C, substrate Z-Phe-Arg-AMC, mean ± SEM of three experiments, read-out: Ki for CatK, pH 5.5).
